We go through four molecules from US5246935A, “Piperazinyl derivatives and methods of treating central nervous system ailments relating to the 5-HT2 receptor system” (Novo Nordisk A/S, priority 1990, dated 1993).

Structures are written as SMILES. Where a name gives a salt, the structure may show the parent alone.

One experiment concerns the target T1, 5HT1A receptor (Rattus norvegicus, UniProt P19327).
T1 sequence (P19327 1-422): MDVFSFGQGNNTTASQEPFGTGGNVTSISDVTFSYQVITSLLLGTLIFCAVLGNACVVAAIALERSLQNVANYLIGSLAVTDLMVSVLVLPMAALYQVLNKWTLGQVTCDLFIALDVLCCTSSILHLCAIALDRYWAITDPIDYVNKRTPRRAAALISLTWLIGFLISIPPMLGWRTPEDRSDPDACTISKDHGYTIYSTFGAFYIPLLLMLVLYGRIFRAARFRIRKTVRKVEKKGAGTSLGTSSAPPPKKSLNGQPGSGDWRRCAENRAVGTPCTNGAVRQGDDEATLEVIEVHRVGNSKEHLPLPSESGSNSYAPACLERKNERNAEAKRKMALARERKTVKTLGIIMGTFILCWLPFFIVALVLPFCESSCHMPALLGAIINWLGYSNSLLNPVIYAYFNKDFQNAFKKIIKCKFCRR
The experiment is described as follows: In-Vitro inhibition of 5HT1A receptor binding (3H-8-OH-DPAT). The note with it: 3H-8-OH-DPAT 1 nM, rat frontal cortex and hippocampus, 37° C., 10 min. On the set-up: species or system rat (male Wistar). How it is done:
In-Vitro inhibition of 5HT1A receptor binding
Radioactive-labelled ligand ^3 H-80H-DPAT is incubated with isolated cell-membrane fragments at 37° C. for a given period of time. Following completed incubation, the incubate is filtered through GF/F filters which are rinsed after filtration to remove unspecifically adhered radioactivity. As opposed to low-molecular compounds, membrane fragments are not rinsed through the filters, the radioactivity bound to the filters indicates the amount of ligand bound specifically as well as nonspecifically to the membranes.
Male Wistar rats, 150-200 g are decapitated, and frontal cortex (approx. 200 mg) and hippocampus (approx. 70 mg) homogenized in 2×10 ml ice-cold DPAT buffer for 20 sec. applying polytron kinematica setting 6. Centrifuged at 20,000 rpm for 10 min. at 4° C. The pellet is transferred to 2×10 ml ice-cold DPAT buffer, homogenized for 20 sec. and preincubated for 10 min. at 37° C. Centrifuged at 20,000 rpm for 10 min. at 4° C. Final pellet added to 125×vol. of same buffer with 10 μM paragylin added (ex. 270 mg tissue in 33.75 ml DPAT buffer containing paragylin). Prepared fresh every day. Use within 30 minutes.
1,250 μl tissue 25 μl ^3 H-80H-DPAT (1 nM) 25 μl test substance/H2 O/blind serotonin (10 μM)
Incubation at 37° C. for 10 min.--at 10 sec. intervals. To the tubes is added 10 ml ice-cold 0.9% NaCl. Filtration through GF/F filters (use gloves). This procedure is repeated. Filters are placed in counting vials and 4 ml optiflow added (prepare in fume cupboard, use gloves). Counted at window 0-19 of the beta- counter (Pachard). Note that receptor box and lid are rinsed thoroughly in H2 O after use to avoid contamination. Further the analytical site is cleaned carefully every day.
Dissolved in H2 O, EtOH, MeOH or DMSO and further diluted in H2 O. The DPAT binding will stand concentrations of up to approx. 5% of these solvents without affecting the binding. Most stock solutions are stable at 4° C. Attention should, however, be paid to any precipitation, change in colour etc. Test-substance dilutions are always prepared fresh every day. When weighing out test substances, it is attempted to weigh out approx. 1 mg of substance. Less than 0.8 mg must never be weighed out and only infrequently more than 2 mg (for economy reasons) dependent, however on conc./assay.

Another experiment addresses Alpha1 receptor. Description: In-Vitro Inhibition of Alpha1-Receptor Binding (3H-Prazosin). The note with it: 3H-Prazosin 0.5 nM, rat cortex, 25° C., 30 min; read-out: Receptor binding IC50 α1. On the set-up: species or system rat (male Wistar). How it is done: In-Vitro Inhibition of Alpha1 -Receptor Binding, Radioactive-labelled ligand ^3 H-Prazosin is incubated with isolated cell-membrane fragments at 25° C. for a given period of time. Following completed incubation, the incubate is filtered through GF/B filters, which are rinsed following filtration to remove unspecifically adhered radioactivity. As opposed to low- molecular compounds, membrane fragments are not rinsed through the filters, the radioactivity bound to the filters indicates the amount of ligand bound specifically as well as nonspecifically to the membranes. The procedure is performed in ice bath. Polytron kinematica is rinsed with milli-Q-H2 O before and after use. Male Wistar rats, 150-200 g are decapitated, cortex is removed quickly and weighed (approx. 500 mg). Cortex is transferred to a centrifuging vial containing 10 ml ice-cold D2 buffer. Homogenization applying polytron kinematica (homogenizer) setting 6 for 20 sec. The homogenizer is rinsed with 10 ml D2 buffer in another centrifuging vial. The 10 ml rinsing buffer is added to the tissue vial. Centrifugation at 18,000 rpm for 12 min. at 4° C. This is repeated once. Final pellet is added to 400×vol. of same buffer. (Ex. 500 mg cortex in 200 ml D2 buffer). Can be stored for 30 min. at 0° C. 2,000 μl tissue 25 μl ^3 H-Prazosin (0.5 nM) 25 μl test substance/H2 O/blind Phentolamine (10 μM) Incubation for 30 min. at 25° C. 10 ml of ice-cold 0.9% NaCl is added to the tubes and filtered through GF/B filters (use gloves). This procedure is repeated. Filters are placed in counting vials and 4 ml opti-flour is added (perform in fume cupboard, use gloves). Counting is performed at window 0-19 of the betacounter (Pachard). […] Further, the analytical site is cleaned carefully every day after use. Dissolved in H2 O, EtOH, MeOH or DMSO and further diluted in H2 O. […] Most stock solutions are stable at 4° C. Attention should, however, be paid to any precipitation, change in colour etc. Test-substance dilutions are always prepared fresh every day. When weighing out test substances, it is attempted to weigh out approx. 1 mg of substance. Less than 0.8 mg must never be weighed out and only infrequently more than 2 mg (for economy reasons) dependent, however, on conc./ass.

Consider `COc1cc(NC(=O)OCCCN2CCN(c3ccccc3Cl)CC2)cc(OC)c1OC.Cl` [Example 3, 4-(2-Chlorophenyl)-1-[3-(3,4,5-trimethoxyphenylcarbamoyloxy)propyl]piperazine, hydrochloride], for which the IC50 at 5HT1A receptor was over 300 nM; on Alpha1 receptor, 45 nM.

On to `COc1cc(NC(=O)OCCCN2CCN(c3ccc(F)cc3)CC2)cc(OC)c1OC` [Example 8, 4-(4-Fluorophenyl)-1-[3-(3,4,5-trimethoxyphenylcarbamoyloxy)propyl]piperazine, hydrochloride], for which the half-maximal inhibitory concentration (IC50) was over 1000 nM on 5HT1A receptor and 61 nM on Alpha1 receptor.

For the molecule `O=C(Nc1ccc2ncsc2c1)OCCCN1CCN(c2ccc(Cl)cc2)CC1` [Example 19, 4-(4-Chlorophenyl)-1-[3-(6-benzothiazolylcarbamoyloxy)propyl]piperazine, hydrochloride], the IC50 was over 1000 nM at 5HT1A receptor and 122 nM at Alpha1 receptor.

As for `COc1ccc2cccc(N3CCN(CCCOC(=O)Nc4ccc5c(c4)OCO5)CC3)c2c1` [Example 34, 1-(7-Methoxy-1-naphthyl)-4-[3-(3,4-methylenedioxyphenylcarbamoyloxy)propyl]piperazine, HCl], the IC50 on 5HT1A receptor was 1.6 nM; on Alpha1 receptor, 144 nM.

One may read the IC50 as the concentration needed to halve the response being measured.
